Values joined by “and” are separate entries in the source; they are usually repeats but may differ in a detail not shown here. Identical values can stand only once.
Columns and labels:
[1] = Langmuir isotherm of monolayer; format: physicochemical; details: aqueous subphase, neutral pH
Protocol: (§1) Langmuir-Blodgett studies was carried out for compound C14, being the ultimate compound with both surface active and antioxidant properties, according to the method of Correa et al.[29] with slight modications. Experiments were performed in aqueous solutions at neutral pH. Briefly, 20 µl of 2 mg/mL solution of C14 in chloroform:methanol (9:1, v/v) was applied to the aqueous phase and allowed to evaporate for a period of 20 min. Thereafter, the barriers were compressed at a constant rate of ~9 Å/ (chain min) until film collapsed. After stable conditions were attained, deposition of the corresponding film was carried out onto a hydrophilic mica support at a pressure just before film collapsed. The deposited monolayers on mica were left to air dry overnight. AFM images were acquired at ambient conditions by air tapping mode using a silicon tip on a micro cantilever (Olympus Inc., Japan) with a spring constant of 26 N/m and resonant frequency of 300 kHz. All measurements were performed in the center of the sample. Analyses were done in duplicates.

[2] = Atomic force microscopy of Langmuir-Blodgett films on mica; format: physicochemical; details: film transferred to mica at ~22 mN/m
Protocol: as §1

[3] = Creaming stability (creaming index) of 30% fish oil-in-water emulsions; format: physicochemical; details: 30% fish oil-in-water emulsion, storage at 5 °C, 7 days
Protocol: (§2) The synthetic compounds were evaluated as emulsifiers for fish oil-in-water emulsions and compared to commercial DATEM. Emulsions consisting of 30.0% fish oil were prepared using 1.5 mL (0.1 M) of emulsifier solutions in phosphate buffer (pH 7.0). Coarse emulsions were first created by homogenization of lipid and aqueous phases (PRO250, PRO Scientific, Oxford, USA) at high speed for two minutes at room temperature. Further reduction particle size was achieved by use of a probe sonicator (Branson sonifier 250, Branson ultrasonics, Danbury, US) for a period of 3 min.
To examine their creaming stability, duplicate emulsions were transferred to clear, screw-capped 15 mL vials (diameter 1.8 cm) and stored at 5 °C. By aid of daily digital photographs, the phase separation in each emulsion was monitored over 7 days. The extent of creaming was characterized by the creaming index (CI) according to Equation (2), where HA is the height of the lower, aqueous phase, and HE is the total height of emulsion[30]).1 %CI=HA/HE×100

[4] = Temp-ramp FT-IR determination of lateral lipid chain packing; format: physicochemical; details: FT-IR CH2 rocking region, 28 °C
Protocol: Fourier transform infrared spectroscopy (FT-IR) was applied to determine the molecular organization of the amphiphilic lipids. Spectra were recorded using an ATR-FTIR (PIKE, Madison, WI; Bruker, Ettlingen, Germany). The synthesized compounds were dried under low pressure over night, and then pressed onto a ZnSe ATR crystal mounted in a trough plate. […] Spectra were collected with a spectral resolution of 4 cm^−1 with 8 scans over the range of 3500–650 cm^−1. The FTIR spectra were analyzed by using MicroCal Origin 9.0 software.

[5] = Lipid oxidation in fish oil-in-water emulsions (TBARS assay); details: relative to emulsions with commercial DATEM, after 7 days (1 week) of storage
Protocol: as §2
The ability of the new emulsifiers to inhibit lipid oxidation in emulsions was evaluated using Thiobarbituric acid-reactive species (TBARS) assay. TBARS were used to measure the formation of malondialdehyde, a major product of lipid oxidation, in emulsions after one week of storage. A solution of TCA-TBA-HCl was prepared by mixing 15 g of TCA, 375 mg TBA, 1.76 ml 12 N HCl, and 82.9 ml water. […] of this solution was mixed with 20 µl of the emulsion sample previously in 1 ml of distilled water. Thereafter, the mixture was heated at 100 °C for 15 min, cooled to room temperature within 10 min under a running tap water, and centrifuged at 2000×g for 15 min[22]. TBA formed colored complexes with the secondary oxidation products, which were detected in a UV-visible spectrophotometer (Cary 50Bio, Varian, Australia) at 532 nm. The relative degree of oxidation in each emulsion was calculated with respect to the degree of oxidation in emulsions with commercial DATEM, according to Equation (3), where AS is the absorbance of samples with added stabilizer, and A0 is the absorbance of samples with no added emulsifier. Measurements were taken on duplicate emulsion samples.2 Oxidation(%)=AS/AO×100

[6] = Critical micelle concentration by pyrene fluorescence method; format: physicochemical; details: in water
Protocol: Critical Micelle Concentration (CMC) values of the synthetic compounds were determined by pyrene fluorescence method[28] using a Varian Cary Eclipse Fluorescence spectrometer (Agilent Technology, California, USA). The respective solutions were prepared using water previously saturated with pyrene (1 µM final concentration) in different concentrations (0.000001, 0.00001, 0.0001, 0.001, 0.01, 0.1, 1, 2.5, 5, 10, 15, 20 mM). Emission spectra of pyrene were obtained by exciting the samples at 334 nm. The fluorescence intensity ratio of I1/I3 (I1 = 373 nm, I3 = 383 nm) was plotted against sample solution concentration. The concentration at which the first break occurs was referred as the CMC value of the compound in water. Measurements were determined in triplicate.

Row | Compound | Surface pressure at monolayer collapse [1] [mN/m] | Double-layer film thickness [2] | Monolayer film thickness [2] [nm] | Creaming index (CI) [3] [%] | Lipid packing mode [4] | Relative oxidation in emulsions (as TBARS) [5] [%] | melting point [°C] | Critical micelle concentration (CMC) [6] [mM]
1 | CCCCCCCCCCCCCC(=O)OCC(O)COC(=O)C(CC(=O)O)OC(=O)/C=C/c1ccc(OC)c(OC)c1 (stereo not shown) [C14] | 39 | 5.2 nm and 6.7 nm | 2.3 | 0 | Hexagonal |  |  | 
2 | CCCCCCCCCCCCCC(=O)OCC(O)COC(=O)C(CC(=O)O)OC(=O)/C=C/c1ccc(O)c(O)c1 (stereo not shown) [C14a] |  |  |  | 0 | Hexagonal | 19.26 ± 0.05 |  | 
3 | CCCCCCCCCCCC(=O)OCC(O)COC(=O)C(CC(=O)O)OC(=O)/C=C/c1ccc(O)c(O)c1 (stereo not shown) [C12a] |  |  |  | 0 | Hexagonal | 25.72 ± 0.03 |  | 
4 | CCCCCCCCCCCCCCCCCC(=O)OCC(O)COC(=O)C(CC(=O)O)OC(=O)/C=C/c1ccc(OC)c(OC)c1 (stereo not shown) [C18] |  |  |  | 37.2 | Orthorhombic |  | 38 | 0.01
5 | CCCCCCCC(=O)OCC(O)COC(=O)C(CC(=O)O)OC(=O)/C=C/c1ccc(OC)c(OC)c1 (stereo not shown) [C8] |  |  |  | 15.1 | Hexagonal |  |  | 10
6 | CCCCCCCCCCCCCCCC(=O)OCC(O)COC(=O)C(CC(=O)O)OC(=O)/C=C/c1ccc(O)c(O)c1 (stereo not shown) [C16a] |  |  |  | 0 | Hexagonal | 39.04 ± 0.02 |  | 
7 | CCCCCCCCCCCC(=O)OCC(O)COC(=O)C(CC(=O)O)OC(=O)/C=C/c1ccc(OC)c(OC)c1 (stereo not shown) [C12] |  |  |  | 0 | Hexagonal |  |  | 
8 | CCCCCCCCCCCCCCCC(=O)OCC(O)COC(=O)C(CC(=O)O)OC(=O)/C=C/c1ccc(OC)c(OC)c1 (stereo not shown) [C16] |  |  |  | 0 | Hexagonal |  |  | 
9 | CCCCCCCCCC(=O)OCC(O)COC(=O)C(CC(=O)O)OC(=O)/C=C/c1ccc(OC)c(OC)c1 (stereo not shown) [C10] |  |  |  | 10.35 | Hexagonal |  |  | 5

— paper PMC5770433, “A new group of synthetic phenolic-containing amphiphilic molecules for multipurpose applications: Physico-chemical characterization and cell-toxicity study” (Scientific Reports, 2018)
